According to publication PMC12621043, “Un-LOK-ing a New Approach for Conformational Selective Targeting of STK10 (LOK)” (ACS Medicinal Chemistry Letters, 2025):

Experiments:
Assay in all cases: DSF Tm panel
Format in all cases: binding
Settings in all cases: 10 μM compound
[1] = molecular target: T1, STK3 (STK3A) (Homo sapiens, UniProt Q13188)
T1 construct: purchased in-house DSF kinase panel (SGC-style construct names; the trailing letter is the construct ID)
T1 sequence (Q13188 16-313): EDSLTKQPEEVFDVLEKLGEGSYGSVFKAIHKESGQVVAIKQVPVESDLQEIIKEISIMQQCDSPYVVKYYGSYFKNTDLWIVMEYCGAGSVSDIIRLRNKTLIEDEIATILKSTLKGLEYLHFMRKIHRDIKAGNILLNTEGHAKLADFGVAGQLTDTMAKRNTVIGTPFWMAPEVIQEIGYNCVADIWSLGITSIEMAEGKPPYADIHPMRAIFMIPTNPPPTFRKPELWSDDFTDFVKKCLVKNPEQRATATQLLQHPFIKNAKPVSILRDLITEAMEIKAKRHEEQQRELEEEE

[2] = molecular target: T2, FGFR2A (Homo sapiens, UniProt P21802)
T2 construct: purchased in-house DSF kinase panel (SGC-style construct names; the trailing letter is the construct ID)
T2 sequence (P21802 458-770): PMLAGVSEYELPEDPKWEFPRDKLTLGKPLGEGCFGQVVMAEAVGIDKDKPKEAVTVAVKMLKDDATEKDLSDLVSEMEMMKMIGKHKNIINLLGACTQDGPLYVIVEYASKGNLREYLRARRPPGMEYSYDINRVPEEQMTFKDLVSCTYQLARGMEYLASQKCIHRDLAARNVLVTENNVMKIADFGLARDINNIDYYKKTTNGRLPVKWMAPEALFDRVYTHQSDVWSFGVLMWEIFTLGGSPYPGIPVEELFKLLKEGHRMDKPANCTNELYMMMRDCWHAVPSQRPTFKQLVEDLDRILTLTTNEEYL

[3] = molecular target: T3, MAPK14A (Homo sapiens, UniProt Q16539)
T3 construct: purchased in-house DSF kinase panel (SGC-style construct names; the trailing letter is the construct ID)
T3 sequence (Q16539 whole entry): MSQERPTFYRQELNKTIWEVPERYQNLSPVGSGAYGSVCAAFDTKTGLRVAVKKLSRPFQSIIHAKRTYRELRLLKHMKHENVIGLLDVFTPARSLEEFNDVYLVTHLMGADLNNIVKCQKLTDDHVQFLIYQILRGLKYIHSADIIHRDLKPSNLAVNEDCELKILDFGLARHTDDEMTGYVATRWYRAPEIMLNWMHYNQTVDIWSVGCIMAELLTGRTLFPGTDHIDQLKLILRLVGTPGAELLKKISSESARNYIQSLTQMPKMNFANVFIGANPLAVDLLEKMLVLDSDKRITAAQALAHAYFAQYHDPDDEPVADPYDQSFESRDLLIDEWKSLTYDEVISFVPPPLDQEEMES

[4] = molecular target: T4, EPHB3A (Homo sapiens, UniProt P54753)
T4 construct: purchased in-house DSF kinase panel (SGC-style construct names; the trailing letter is the construct ID)
T4 sequence (P54753 34-998): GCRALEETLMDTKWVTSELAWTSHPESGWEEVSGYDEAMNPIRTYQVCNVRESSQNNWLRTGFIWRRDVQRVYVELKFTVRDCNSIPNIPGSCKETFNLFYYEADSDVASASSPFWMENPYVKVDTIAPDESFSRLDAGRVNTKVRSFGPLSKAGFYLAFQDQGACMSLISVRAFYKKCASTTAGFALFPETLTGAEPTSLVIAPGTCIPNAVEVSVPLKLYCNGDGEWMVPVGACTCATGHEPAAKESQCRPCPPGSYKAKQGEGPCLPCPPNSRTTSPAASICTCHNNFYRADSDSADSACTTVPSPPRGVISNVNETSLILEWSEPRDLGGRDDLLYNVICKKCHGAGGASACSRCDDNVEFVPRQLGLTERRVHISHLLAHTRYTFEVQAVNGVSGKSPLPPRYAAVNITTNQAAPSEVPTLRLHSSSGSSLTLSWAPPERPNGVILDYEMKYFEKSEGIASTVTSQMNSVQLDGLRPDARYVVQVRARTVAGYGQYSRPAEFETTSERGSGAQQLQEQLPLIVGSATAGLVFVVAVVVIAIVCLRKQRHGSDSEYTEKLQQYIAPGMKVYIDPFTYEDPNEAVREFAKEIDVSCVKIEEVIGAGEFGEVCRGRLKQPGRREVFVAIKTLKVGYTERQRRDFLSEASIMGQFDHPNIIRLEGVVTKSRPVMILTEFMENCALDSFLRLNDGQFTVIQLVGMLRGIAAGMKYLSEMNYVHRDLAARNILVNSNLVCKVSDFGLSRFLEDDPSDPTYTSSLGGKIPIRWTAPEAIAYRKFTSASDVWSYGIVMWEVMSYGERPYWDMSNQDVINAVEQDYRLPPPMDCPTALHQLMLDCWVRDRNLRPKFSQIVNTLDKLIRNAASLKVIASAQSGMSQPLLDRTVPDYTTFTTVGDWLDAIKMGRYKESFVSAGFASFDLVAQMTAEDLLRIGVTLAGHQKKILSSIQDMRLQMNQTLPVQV

[5] = molecular target: T5, MAPK10A (Homo sapiens, UniProt P53779)
T5 construct: purchased in-house DSF kinase panel (SGC-style construct names; the trailing letter is the construct ID)
T5 sequence (P53779 39-402): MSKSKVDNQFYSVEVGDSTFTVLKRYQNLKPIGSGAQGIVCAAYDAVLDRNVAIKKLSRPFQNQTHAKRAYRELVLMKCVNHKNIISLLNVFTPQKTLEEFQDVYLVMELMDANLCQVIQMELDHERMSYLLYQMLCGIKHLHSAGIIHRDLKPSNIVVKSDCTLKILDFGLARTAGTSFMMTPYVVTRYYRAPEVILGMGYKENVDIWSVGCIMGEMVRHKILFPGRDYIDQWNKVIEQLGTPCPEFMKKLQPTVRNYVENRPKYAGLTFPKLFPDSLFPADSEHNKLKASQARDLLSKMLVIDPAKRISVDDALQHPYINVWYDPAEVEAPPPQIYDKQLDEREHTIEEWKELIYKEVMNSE

[6] = molecular target: T6, BRAFA (Homo sapiens, UniProt P15056)
T6 construct: purchased in-house DSF kinase panel (SGC-style construct names; the trailing letter is the construct ID)
T6 sequence (P15056 448-723): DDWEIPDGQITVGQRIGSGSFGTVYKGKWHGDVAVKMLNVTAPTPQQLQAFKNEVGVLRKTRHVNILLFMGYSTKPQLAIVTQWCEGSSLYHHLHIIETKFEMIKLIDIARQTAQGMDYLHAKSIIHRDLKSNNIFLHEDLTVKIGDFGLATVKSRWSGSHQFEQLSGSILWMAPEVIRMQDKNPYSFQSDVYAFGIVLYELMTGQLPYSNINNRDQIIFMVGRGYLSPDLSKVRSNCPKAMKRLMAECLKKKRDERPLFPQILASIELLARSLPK

[7] = molecular target: T7, CAMK2BA (Homo sapiens, UniProt Q13554)
T7 construct: purchased in-house DSF kinase panel (SGC-style construct names; the trailing letter is the construct ID)
T7 sequence (Q13554 11-303): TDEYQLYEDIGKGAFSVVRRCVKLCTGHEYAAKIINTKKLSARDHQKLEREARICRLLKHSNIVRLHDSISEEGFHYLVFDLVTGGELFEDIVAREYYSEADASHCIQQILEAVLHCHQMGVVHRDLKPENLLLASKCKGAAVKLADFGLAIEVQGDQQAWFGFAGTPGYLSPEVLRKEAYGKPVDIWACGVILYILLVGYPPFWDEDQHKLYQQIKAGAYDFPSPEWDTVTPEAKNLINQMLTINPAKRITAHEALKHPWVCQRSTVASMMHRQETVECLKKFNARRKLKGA

[8] = molecular target: T8, CDKL1A (Homo sapiens, UniProt Q00532)
T8 construct: purchased in-house DSF kinase panel (SGC-style construct names; the trailing letter is the construct ID)
T8 sequence (Q00532 1-303): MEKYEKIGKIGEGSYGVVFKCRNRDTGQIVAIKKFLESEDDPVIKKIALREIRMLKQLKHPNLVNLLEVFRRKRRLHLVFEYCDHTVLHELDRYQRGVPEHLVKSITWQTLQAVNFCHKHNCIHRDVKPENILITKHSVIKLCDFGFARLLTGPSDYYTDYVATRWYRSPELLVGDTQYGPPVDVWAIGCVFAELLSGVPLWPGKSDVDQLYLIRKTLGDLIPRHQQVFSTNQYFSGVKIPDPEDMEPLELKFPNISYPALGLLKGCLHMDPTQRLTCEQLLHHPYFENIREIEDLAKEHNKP

[9] = molecular target: T9, GPRK5A (Homo sapiens, UniProt P34947)
T9 construct: purchased in-house DSF kinase panel (SGC-style construct names; the trailing letter is the construct ID)
T9 sequence (P34947 186-514): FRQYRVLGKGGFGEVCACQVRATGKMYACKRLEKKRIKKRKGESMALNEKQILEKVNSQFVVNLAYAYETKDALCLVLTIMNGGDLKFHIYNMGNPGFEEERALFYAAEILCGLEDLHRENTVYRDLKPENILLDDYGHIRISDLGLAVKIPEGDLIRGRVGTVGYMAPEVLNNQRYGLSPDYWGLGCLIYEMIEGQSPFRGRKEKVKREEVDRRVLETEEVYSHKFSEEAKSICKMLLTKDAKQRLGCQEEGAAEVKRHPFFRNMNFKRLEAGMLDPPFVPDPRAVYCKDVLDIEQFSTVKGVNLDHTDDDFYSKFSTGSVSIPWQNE

[10] = molecular target: T10, MARK4A (Homo sapiens, UniProt Q96L34)
T10 construct: purchased in-house DSF kinase panel (SGC-style construct names; the trailing letter is the construct ID)
T10 sequence (Q96L34 59-310): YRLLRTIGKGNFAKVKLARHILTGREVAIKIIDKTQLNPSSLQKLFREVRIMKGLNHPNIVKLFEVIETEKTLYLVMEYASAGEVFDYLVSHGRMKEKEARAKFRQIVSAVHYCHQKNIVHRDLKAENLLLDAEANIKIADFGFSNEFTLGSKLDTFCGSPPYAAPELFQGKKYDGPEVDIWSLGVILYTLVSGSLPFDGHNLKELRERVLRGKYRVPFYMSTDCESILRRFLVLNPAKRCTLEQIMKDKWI

[11] = molecular target: T11, GSG2A (Homo sapiens, UniProt Q8TF76)
T11 construct: purchased in-house DSF kinase panel (SGC-style construct names; the trailing letter is the construct ID)
T11 sequence (Q8TF76 465-798): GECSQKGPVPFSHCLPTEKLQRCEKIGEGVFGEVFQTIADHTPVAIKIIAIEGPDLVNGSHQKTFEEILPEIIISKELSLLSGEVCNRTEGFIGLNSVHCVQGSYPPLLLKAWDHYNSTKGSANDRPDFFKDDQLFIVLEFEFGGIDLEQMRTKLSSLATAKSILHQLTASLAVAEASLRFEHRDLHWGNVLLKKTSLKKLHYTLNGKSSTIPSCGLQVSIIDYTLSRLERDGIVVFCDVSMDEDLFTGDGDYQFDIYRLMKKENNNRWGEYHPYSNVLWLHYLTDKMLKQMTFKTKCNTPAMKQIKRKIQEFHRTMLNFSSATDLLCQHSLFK

[12] = molecular target: T12, CLK1A (Homo sapiens, UniProt P49759)
T12 construct: purchased in-house DSF kinase panel (SGC-style construct names; the trailing letter is the construct ID)
T12 sequence (P49759 148-484): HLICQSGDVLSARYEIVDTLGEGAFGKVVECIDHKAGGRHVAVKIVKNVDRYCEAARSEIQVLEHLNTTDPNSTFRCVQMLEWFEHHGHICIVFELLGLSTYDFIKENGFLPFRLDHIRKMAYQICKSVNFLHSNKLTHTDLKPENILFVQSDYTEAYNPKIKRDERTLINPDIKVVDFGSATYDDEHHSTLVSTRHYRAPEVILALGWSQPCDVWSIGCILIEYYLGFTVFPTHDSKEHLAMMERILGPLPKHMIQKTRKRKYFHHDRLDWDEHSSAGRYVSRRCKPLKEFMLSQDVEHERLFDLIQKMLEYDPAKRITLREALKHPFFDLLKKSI

[13] = molecular target: T13, STK39A (Homo sapiens, UniProt Q9UEW8)
T13 construct: purchased in-house DSF kinase panel (SGC-style construct names; the trailing letter is the construct ID)

[14] = molecular target: T14, MST4A (Homo sapiens, UniProt Q9P289)
T14 construct: purchased in-house DSF kinase panel (SGC-style construct names; the trailing letter is the construct ID)
T14 sequence (Q9P289 1-300): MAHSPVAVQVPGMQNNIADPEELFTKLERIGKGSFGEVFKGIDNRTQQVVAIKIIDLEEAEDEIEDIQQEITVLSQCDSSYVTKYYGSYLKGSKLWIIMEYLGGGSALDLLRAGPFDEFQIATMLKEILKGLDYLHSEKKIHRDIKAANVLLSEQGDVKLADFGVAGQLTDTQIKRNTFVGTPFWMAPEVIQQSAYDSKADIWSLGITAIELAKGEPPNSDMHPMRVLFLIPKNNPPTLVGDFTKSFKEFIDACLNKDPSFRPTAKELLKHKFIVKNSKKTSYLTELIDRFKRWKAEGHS

[15] = molecular target: T15, DYRK2A (Homo sapiens, UniProt Q92630)
T15 construct: purchased in-house DSF kinase panel (SGC-style construct names; the trailing letter is the construct ID)
T15 sequence (Q92630 1-601): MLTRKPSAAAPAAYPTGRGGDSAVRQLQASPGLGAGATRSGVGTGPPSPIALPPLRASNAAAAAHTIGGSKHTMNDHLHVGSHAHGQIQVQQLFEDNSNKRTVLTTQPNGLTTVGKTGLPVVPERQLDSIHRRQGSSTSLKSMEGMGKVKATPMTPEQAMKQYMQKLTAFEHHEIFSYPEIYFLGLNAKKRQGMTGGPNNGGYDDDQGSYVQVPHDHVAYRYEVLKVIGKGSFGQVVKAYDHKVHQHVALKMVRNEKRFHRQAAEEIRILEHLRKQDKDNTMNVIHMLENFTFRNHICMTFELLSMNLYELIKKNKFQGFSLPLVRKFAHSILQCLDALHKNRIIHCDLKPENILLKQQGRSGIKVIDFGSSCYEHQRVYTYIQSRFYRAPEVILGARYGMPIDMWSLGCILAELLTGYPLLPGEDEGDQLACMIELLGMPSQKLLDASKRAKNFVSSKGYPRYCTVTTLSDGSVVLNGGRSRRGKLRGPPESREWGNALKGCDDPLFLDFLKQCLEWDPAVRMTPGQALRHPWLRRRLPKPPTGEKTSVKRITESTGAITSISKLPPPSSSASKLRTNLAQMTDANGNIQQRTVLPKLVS

| SMILES | ΔTm at 10 µM [1] [°C] | ΔTm at 10 µM [2] [°C] | ΔTm at 10 µM [3] [°C] | ΔTm at 10 µM [4] [°C] | ΔTm at 10 µM [5] [°C] | ΔTm at 10 µM [6] [°C] | ΔTm at 10 µM [7] [°C] | ΔTm at 10 µM [8] [°C] | ΔTm at 10 µM [9] [°C] | ΔTm at 10 µM [10] [°C] | ΔTm at 10 µM [11] [°C] | ΔTm at 10 µM [12] [°C] | ΔTm at 10 µM [13] [°C] | ΔTm at 10 µM [14] [°C] | ΔTm at 10 µM [15] [°C] |
| --- | --- | --- | --- | --- | --- | --- | --- | --- | --- | --- | --- | --- | --- | --- | --- |
| O=C(NCc1ccccc1)Nc1ccc2cc1OCCOCCNc1ccn3ncc-2c3n1 [compound 16] | 5.9 | 4.8 | -0.6 | 0.8 | -0.3 | 0.8 | 1.3 | -0.1 | 1.2 | 1.7 | 0.5 | 3.4 | 3 | 1.3 | 3.7 |
| O=C(NCc1ccccc1Cl)Nc1ccc2cc1OCCOCCNc1ccn3ncc-2c3n1 [compound 17] | 6.2 | 1.7 | 0 | 0.3 | 0.2 | 0.8 | 0.3 | 0.4 | 1.3 | 2.2 | -0.3 | 4.5 | 2.4 | 0.7 | 1.1 |
| O=C(NCc1cccc(Cl)c1)Nc1ccc2cc1OCCOCCNc1ccn3ncc-2c3n1 [compound 18] | 8 | 3.3 | 0.3 | 0.2 | 0.6 | 0.6 | 0.8 | -0.1 | 1.1 | 1.4 | 0 | 2.9 | 4 | 0.8 | 2.8 |
| O=C(NCc1ccc(Cl)cc1)Nc1ccc2cc1OCCOCCNc1ccn3ncc-2c3n1 [compound 19] | 6.7 | 3.7 | 0.1 | -0.1 | 0.8 | 0.8 | -0.1 | 0.3 | 1.5 | 2 | -0.2 | 2.1 | 2.6 | 1.1 | 0.2 |
| O=C(NCc1ccc(Cl)cc1Cl)Nc1ccc2cc1OCCOCCNc1ccn3ncc-2c3n1 [compound 20] | 8 | 0.9 | 0.8 | 0.1 | 1.6 | 0.4 | 1.6 | 0.9 | 1.3 | 2 | 0 | 2.1 | 1.9 | 0.5 | 0.6 |
